{
  "source": "paper PMC12700550",
  "about": "“DLL4^+ neutrophils promote Notch1-mediated endothelial PANoptosis to exacerbate acute lung injury in sepsis” (The Journal of Clinical Investigation, 2025)",
  "key": {"[1]": {"system": "p-MLKL", "assay": "p-MLKL/MLKL in lungs of CLP mice, Western blot", "assay_type": "in vivo, mouse", "conditions": "10 mg/kg NDI, 20 h; for lung p-MLKL/MLKL (Figure 5F): individual mice, 10 mg/kg", "procedure": "(§1) Sepsis was induced in mice by cecal ligation and puncture (CLP) as described previously ([45], [46]). Mice were anesthetized with isoflurane to a surgical plane and placed in a supine position. CLP was performed through a midline laparotomy. The abdomen was shaved and disinfected. Through a 2 cm midline incision, the cecum was exposed and then ligated with a 4-0 silk suture 1 cm proximal from the distal cecal extremity. For 20-hour CLP experiments, the cecum was punctured twice with a 22-gauge needle. A small amount of cecal content was extruded through both holes, and the ligated cecum was returned to the peritoneal cavity. The wound was closed in layers. For 10-day sepsis survival studies, the cecum was punctured once with a 22-gauge needle. A small amount of cecal content was extruded. Mice were allocated to the vehicle and adoptive transfer of DLL4^+ neutrophils or DLL4^– neutrophils groups. Adoptive transfer mice received a retro-orbital injection of 1 × 10^6 cells per mouse DLL4^+ neutrophils or DLL4^– neutrophils in […] phosphate-buffered saline (PBS) immediately after abdominal closure in both the 20-hour experiments and the survival study. Vehicle groups received an equivalent volume of PBS, while treatment groups received NDI 10 mg/kg in 100 mL PBS via retro-orbital injection after CLP. This dose was chosen primarily on the basis of our laboratory’s prior experience, we have consistently used this dose in mouse CLP models with reproducible efficacy and without observable toxicity ([39], [44]). Sham-operated animals underwent a laparotomy without CLP. After closure, the mice received a subcutaneous injection of 0.5 mL of normal saline to overcome surgery-induced dehydration. […]\nPVECs and lung tissue were collected in previous steps. Whole-cell proteins were extracted, and the protein concentration was measured using an ABC protein assay kit (catalog 5000002, Bio-Rad). […] Bands were detected using an Odyssey FC Dual-Mode Imaging system 2800 (LI-COR)."}, "[2]": {"system": "ZBP1", "assay": "ZBP1 mRNA in PVECs cocultured with neutrophils, RT-PCR (DAPT, NDI, peptides 1–5)", "assay_type": "cell-based, mouse", "set-up": "key to ZBP1 mRNA expression (Figure 4E): fold change in mRNA vs sham group", "conditions": "for ZBP1 mRNA expression (Figure 4E): 10 μM peptide, relative mRNA, β-actin normalized, individual replicates", "procedure": "Immortalized mouse (Mus musculus) lung endothelial cells with polyoma middle T (PVECs) were purchased from Applied Biological Materials Inc. (ABM) and grown in 1:1 PriGrow VI Medium and PriGrow IV Medium (ABM).\n(§2) Wild-type PVECs (5 × 10^5) were cocultured with sorted DLL4^+ neutrophils (5 × 10^5) or DLL4^– neutrophils (5 × 10^5) and then treated with different dosages of peptides or 10 μM DAPT (Thermo Fisher Scientific), 10 μM NDI (GenScript), or 10 μM NDI scramble (GenScript). Notch1-knockdown PVECs (5 × 10^5) were cocultured with sorted DLL4^+ neutrophils (5 × 10^5). After 16 hours, neutrophils were washed away by PBS, and PVECs were collected for further experiments. Cell viability was evaluated by propidium iodide staining using the FITC Annexin V Apoptosis Detection Kit I (catalog 556547, BD Pharmingen). Cell death was quantified as the percentage of propidium iodide–positive cells by flow cytometry.\nmRNA was extracted from lung tissues with TRIzol reagent (Invitrogen, Thermo Fisher Scientific). An equal amount ([…]) of mRNA was reverse-transcribed into cDNA using the reverse transcriptase enzyme (Invitrogen, Thermo Fisher Scientific). qPCR was performed from the diluted cDNA templates with forward and reverse primers (Supplemental Table 4) and SYBR Green PCR Master Mix (Applied Biosystems, Thermo Fisher Scientific) using an Applied Biosystems 7300 real-time PCR machine. Mouse β-actin served as an internal control gene for normalization. Relative expression of mRNA was represented as fold change in comparison with the sham group."}, "[3]": {"system": "ZBP1", "assay": "ZBP1 in pulmonary endothelial cells (CD31) of CLP mice, confocal immunofluorescence", "assay_type": "in vivo, mouse", "conditions": "sepsis, 10 mg/kg NDI, 20 h", "procedure": "as §1, with “study.” for “study. Vehicle groups received an equivalent volume of PBS, while treatment groups received NDI 10 mg/kg in 100 mL PBS via retro-orbital injection after CLP. This dose was chosen primarily on the basis of our laboratory’s prior experience, we have consistently used this dose in mouse CLP models with reproducible efficacy and without observable toxicity ([39], [44]). Sham-operated animals underwent a laparotomy without CLP. After closure, the mice received a subcutaneous injection of 0.5 mL of normal saline to overcome surgery-induced dehydration.”\nFor immunohistochemistry staining, paraffin-embedded lung tissue sections were deparaffinized and dewaxed in xylene and a series of ethanol. […] The images were analyzed with ImageJ Fiji (NIH)."}, "[4]": {"system": "p-MLKL", "assay": "p-MLKL/MLKL (necroptosis) in PVECs cocultured with neutrophils, Western blot", "assay_type": "cell-based, mouse", "conditions": "for p-MLKL/MLKL (Figure 4I): 10 μM peptide, 16 h, individual replicates", "procedure": "as §2\nPVECs and lung tissue were collected in previous steps. Whole-cell proteins were extracted, and the protein concentration was measured using an ABC protein assay kit (catalog 5000002, Bio-Rad). Proteins were separated using NuPAGE 4%–12% Bis-Tris gels (Invitrogen), transferred to PVDF membranes, and immunoblotted with the antibodies indicated in the figure legends according to the manufacturer’s recommendations. The ZBP1 antibody (catalog PA5-20455; 1:1,000) used in this study was obtained from Thermo Fisher Scientific, and the c-GSDMD (catalog 10137S; 1:250), GSDMD (catalog 39754S; 1:1000), c-caspase-3 (catalog 9661L; 1:250), caspase-3 (catalog 9662S; 1:1,000), p-MLKL (catalog 37333S; 1:250), MLKL (catalog 37705S; 1:1,000), N1ICD (c-Notch1) (catalog 4147S; 1:250), and Notch1 (catalog 3608S; 1:1,000) antibodies were obtained from Cell Signaling Technology. GAPDH (catalog 60004-1-Ig; 1:10,000) and β-actin (catalog A5441, Sigma-Aldrich; 1:5,000) were obtained from ProteinTech. After the blots were incubated with primary antibodies, the membranes were washed 3 times, and the blots were subsequently incubated with the corresponding fluorescent secondary antibody (LI-COR). Bands were detected using an Odyssey FC Dual-Mode Imaging system 2800 (LI-COR)."}, "[5]": {"conditions": "10 μM NDI, DLL4^+ neutrophil coculture"}},
  "note": "Values joined by “and” are separate entries in the source; they are usually repeats but may differ in a detail not shown here. Equal entries are not always repeated.",
  "data": [
    {"sequence": "ECAGSPCHNGGTCEDGI [NDI]", "values": [
      {"measurement": "lung p-MLKL/MLKL (Figure 5F)", "setting": "[1]; DLL4^+ neutrophils + CLP", "value": "1.846 and 1.579 and 1.945 and 1.685 and 1.856 and 1.651 and 0.9594"},
      {"measurement": "effect on lung p-MLKL", "setting": "[1]; DLL4^+ neutrophils/sepsis", "value": "attenuated the expression/activation"},
      {"measurement": "lung p-MLKL/MLKL (Figure 5F)", "setting": "[1]; DLL4^– neutrophils + CLP", "value": "1.556 and 0.2214 and 0.5541 and 0.7582 and 0.5214 and 0.9855"},
      {"measurement": "effect on ZBP1 mRNA", "setting": "[2]; [5]", "value": "significantly attenuated by NDI treatment"},
      {"measurement": "ZBP1 mRNA expression (Figure 4E)", "setting": "[2]; DLL4^+ neutrophil coculture, 16 h", "value": "1.415 and 1.669 and 3.8174 and 1.677 and 1.56 and 2.849 and 9.163 and 6.321 and 1.561 and 1.421 and 1.212 and 1.283 and 1.413 and 1.3501"},
      {"measurement": "ZBP1 mRNA expression (Figure 4E)", "setting": "[2]; DLL4^– neutrophil coculture, 16 h", "value": "1.952 and 2.343 and 4.227 and 9.382 and 4.404 and 4.151 and 12.0095 and 11.4783 and 1.027 and 3.606 and 3.156 and 1.889 and 1.85 and 3.13"},
      {"measurement": "effect on ZBP1 mRNA", "setting": "[2]; PVECs cocultured with DLL4^+ neutrophils, varying concentrations of peptide, 16 h, n=10/group", "value": "significantly reduced ZBP1 expression"},
      {"measurement": "inhibition of DLL4^+ neutrophil–induced PANoptosis in PVECs, by reduced ZBP1 expression", "setting": "[2]; among the tested peptides", "value": "most effectively inhibited"},
      {"measurement": "effective concentration for ZBP1 inhibition", "setting": "[2]; dose-response, PVECs cocultured with DLL4^+ neutrophils", "value": 10, "unit": "µM"},
      {"measurement": "effect on ZBP1 in pulmonary endothelial cells, immunostaining", "setting": "[3]", "value": "reduced ZBP1 expression in pulmonary endothelial cells in sepsis"},
      {"measurement": "effect on p-MLKL", "setting": "[4]; [5]", "value": "significantly reduced these markers of PANoptosis"},
      {"measurement": "p-MLKL/MLKL (Figure 4I)", "setting": "[4]; DLL4^+ neutrophil coculture", "value": "1.115 and 1.398 and 1.246 and 1.299 and 0.9429 and 1.577 and 2.352"},
      {"measurement": "p-MLKL/MLKL (Figure 4I)", "setting": "[4]; DLL4^– neutrophil coculture", "value": "0.4818 and 0.8655 and 0.6799 and 0.9484"}
    ]}
  ]
}
